Tests used:
Botrytis cinerea [1] = experiment: Eggplant grey mold; format: in vivo; set-up: scale not given here; details: inoculated 24 h later, rated after 3-4 days; for Disease Control Rating at 20 ppm: eggplant sprayed with 20 ppm; for Disease Control Rating at 100 ppm: eggplant sprayed with 100 ppm; for Disease Control Rating at 500 ppm: eggplant sprayed with 500 ppm
How it was run: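 Protective test: compound formulations (2:3 acetone:water, 0.5% Tween 20; 500, 100 or 20 ppm) sprayed on 14-18-day-old plants, with spore inoculum (4×10^6 spore/mL) applied a day later. Disease control rated on Botrytis lesions after 3-4 days at 23 °C and 100% humidity.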

succinate dehydrogenase = target: T1, succinate dehydrogenase (Botrytis cinerea, UniProt A0A384J5E4+A0A384J8V8+A0A384JHJ5); experiment: Enzyme inhibition: succinate dehydrogenase activity in Botrytis cinerea mitochondria (DCPIP reduction); format: biochemical; details: concentration required to inhibit the rate of DCPIP reduction by 50%; Botrytis cinerea isolate Nick mitochondria; read-out: I50 (μM conc.)
T1 construct: succinate-DCPIP reductase assay with KCN
How it was run: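 DCPIP (45 μM) reduction at 600 nm tracked with 17 mM succinate, 1 mM KCN and 50 mM potassium phosphate, pH 7.2. Compounds were added in acetone (final 1% v/v), and Botrytis cinerea isolate Nick mitochondrial fraction initiated the reaction. Rates minus endogenous activity gave percentage inhibition, plotted semilog against concentration to derive I50 (μM).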

Botrytis cinerea [2] = experiment: Vine grey mold (grape berries); format: in vivo; details: average of six berries, 7-10 days; for pest or weed control at 50 ppm: grape berries treated with 50 ppm, read-out: % DISEASE CONTROL 50 ppm; for pest or weed control at 200 ppm: grape berries treated with 200 ppm, read-out: % DISEASE CONTROL 200 ppm
How it was run: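 Preventive berry test: compound at 50 or 200 ppm (acetone/water, 0.05% Tween 20) applied one day before inoculation with 10^6 spores/mL Botrytis conidia. After 7-10 days at 20 °C under 12 h light, infected surface area rated; disease control expressed as percent reduction from control mean; repeated-test values averaged.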

Rhizoctonia solani = experiment: Rice sheath blight; format: in vivo; set-up: scale not given here; details: inoculated two days later, rated after 7 days, average of five plants; for Disease Control Rating at 0.02 mg/mL: foliage and soil sprayed with 0.02 mg/mL; for Disease Control Rating at 0.1 mg/mL: foliage and soil sprayed with 0.1 mg/mL; for Disease Control Rating at 0.5 mg/mL: foliage and soil sprayed with 0.5 mg/mL
How it was run: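 Preventive test: R. solani inoculum on rice grain was applied at the plant base two days after spraying foliage and soil with Compound A (0.5, 0.1 or 0.02 mg/mL, water/acetone/Tween 20). Plants aged 11–15 days stood in flood trays; after 7 days at 25 °C and high humidity, disease control was rated against untreated plants, five plants averaged.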

T1 sequence (A0A384J5E4 1-300): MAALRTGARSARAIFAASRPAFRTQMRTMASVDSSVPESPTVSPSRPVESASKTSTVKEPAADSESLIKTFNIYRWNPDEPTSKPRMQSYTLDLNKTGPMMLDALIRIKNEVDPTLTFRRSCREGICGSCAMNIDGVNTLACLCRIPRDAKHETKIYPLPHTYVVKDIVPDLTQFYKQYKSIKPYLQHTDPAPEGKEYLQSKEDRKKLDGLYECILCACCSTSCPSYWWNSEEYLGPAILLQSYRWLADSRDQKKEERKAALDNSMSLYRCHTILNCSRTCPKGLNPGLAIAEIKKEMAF
T1 sequence (A0A384J8V8 1-189): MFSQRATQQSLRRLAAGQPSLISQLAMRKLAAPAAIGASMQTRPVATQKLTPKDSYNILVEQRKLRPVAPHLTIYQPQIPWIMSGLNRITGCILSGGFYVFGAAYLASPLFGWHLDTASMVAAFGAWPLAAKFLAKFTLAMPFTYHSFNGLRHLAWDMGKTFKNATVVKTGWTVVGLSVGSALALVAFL
T1 sequence (A0A384JHJ5 1-192): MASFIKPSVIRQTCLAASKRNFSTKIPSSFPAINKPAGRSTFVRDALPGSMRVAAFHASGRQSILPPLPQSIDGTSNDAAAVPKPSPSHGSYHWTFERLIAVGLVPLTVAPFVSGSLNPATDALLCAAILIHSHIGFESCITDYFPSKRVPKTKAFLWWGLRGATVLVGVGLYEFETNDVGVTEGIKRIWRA
T1 sequence (A0A384K456 1-647 partner): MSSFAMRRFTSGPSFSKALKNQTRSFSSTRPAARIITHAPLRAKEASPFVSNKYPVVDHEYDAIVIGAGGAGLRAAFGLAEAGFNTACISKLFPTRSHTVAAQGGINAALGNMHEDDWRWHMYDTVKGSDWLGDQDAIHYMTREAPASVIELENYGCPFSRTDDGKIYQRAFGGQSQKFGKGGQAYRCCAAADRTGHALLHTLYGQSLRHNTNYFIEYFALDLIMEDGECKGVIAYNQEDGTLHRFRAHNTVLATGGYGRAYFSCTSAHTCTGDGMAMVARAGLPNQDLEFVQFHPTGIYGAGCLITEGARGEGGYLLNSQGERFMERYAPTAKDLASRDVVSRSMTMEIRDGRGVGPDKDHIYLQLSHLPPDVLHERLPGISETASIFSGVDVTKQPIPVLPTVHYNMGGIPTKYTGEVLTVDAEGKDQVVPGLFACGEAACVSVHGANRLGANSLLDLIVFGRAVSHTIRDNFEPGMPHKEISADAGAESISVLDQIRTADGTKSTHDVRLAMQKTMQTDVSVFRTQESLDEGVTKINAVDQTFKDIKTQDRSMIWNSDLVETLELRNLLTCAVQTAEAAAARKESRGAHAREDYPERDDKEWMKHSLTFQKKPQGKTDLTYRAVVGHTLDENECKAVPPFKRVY

Row | SMILES | Disease Control Rating at 20 ppm (Botrytis cinerea [1]) | Disease Control Rating at 100 ppm (Botrytis cinerea [1]) | Disease Control Rating at 500 ppm (Botrytis cinerea [1]) | IC50 (succinate dehydrogenase) | pest or weed control at 50 ppm (Botrytis cinerea [2]) | pest or weed control at 200 ppm (Botrytis cinerea [2]) | Disease Control Rating at 0.02 mg/mL (Rhizoctonia solani) | Disease Control Rating at 0.1 mg/mL (Rhizoctonia solani) | Disease Control Rating at 0.5 mg/mL (Rhizoctonia solani)
1 | Cn1cc(C(=O)Nc2ccccc2C2CCCCC2)c(C(F)F)n1 [Example 1, 1H-pyrazole-4-carboxamide, N-(2-cyclohexylphenyl)-3-(difluoromethyl)-1-methyl-] | 3 | 3 | 3 | 0.0095 µM | 92% | 94% | 2 | 0 | 0
2 | Cn1cc(C(=O)Nc2ccccc2OC2(C)CCCC2)c(C(F)F)n1 [Example 35, 1H-pyrazole-4-carboxamide, 3-(difluoromethyl)-1-methyl-N-[2-(1-methylcyclopentyloxy)phenyl]-] | 2 | 3 | 3 | 0.012 µM | 42% | 46% | 2 | 3 | 3
3 | Cc1nn(C)c(F)c1C(=O)Nc1ccccc1C1CCCCCC1 [Example 113, 1H-pyrazole-4-carboxamide, N-(2-cycloheptylphenyl)-5-fluoro-1,3-dimethyl-] | 1 | 1 | 3 | 0.013 µM | 28% | 60% | 3 | 3 | 3
4 | Cn1cc(C(=O)Nc2ccccc2C2CCCCCC2)c(C(F)(F)Cl)n1 [Example 92, 1H-pyrazole-4-carboxamide, 3-(chlorodifluoromethyl)-N-(2-cycloheptylphenyl)-1-methyl-] | – | – | 0 | 0.062 µM | 36% | 30% | 0 | 1 | 2
5 | CC1=C(c2ccccc2NC(=O)c2cn(C)nc2C(F)(F)F)CCC1 [Example 137, 1H-pyrazole-4-carboxamide, 1-methyl-N-[2-(2-methyl-1-cyclopenten-1-yl)phenyl]-3-(trifluoromethyl)-] | 1 | 3 | 3 | 0.02 µM | 83% | 100% | 1 | 2 | 3
6 | Cc1ccc(C2CCCCC2)c(NC(=O)c2cn(C)nc2C(F)F)c1 [Example 21, 1H-pyrazole-4-carboxamide, N-(2-cyclohexyl-5-methylphenyl)-3-(difluoromethyl)-1-methyl-] | 1 | 2 | 2 | 0.019 µM | 40% | 34% | – | – | 1
7 | CC(C)C1=C(c2ccccc2NC(=O)c2cn(C)nc2C(F)(F)F)CCCC1 [Example 128, 1H-pyrazole-4-carboxamide, N-[2-[2-(1-methylethyl)-1-cyclohexen-1-yl]phenyl]-1-methyl-3-(trifluoromethyl)-] | 0 | 0 | 0 | 1.3 µM | 0% | 0% | – | – | 0
8 | Cn1cc(C(=O)Nc2ccccc2C=C2CCCCC2)c(C(F)F)n1 [Example 116, 1H-pyrazole-4-carboxamide, N-[2-(cyclohexylidenemethyl)phenyl]-3-(difluoromethyl)-1-methyl-] | 0 | 0 | 1 | 0.048 µM | 21% | 68% | 1 | 1 | 3
9 | Cn1cc(C(=O)Nc2ccccc2[C@@H]2C[C@H]3CC[C@@H]2C3)c(Br)n1 (relative stereo) [Example 65, 1H-pyrazole-4-carboxamide, N-(2-bicyclo[2.2.1]hept-2-ylphenyl)-3-bromo-1-methyl-, exo-] | 0 | 1 | 2 | 0.011 µM | 47% | 85% | 2 | 3 | 3
10 | Cn1cc(C(=O)Nc2ccccc2C2CCCCC2)c(Cl)n1 [Example 50, 1H-pyrazole-4-carboxamide, 3-chloro-N-(2-cyclohexylphenyl)-1-methyl-] | – | – | 0 | 0.098 µM | 8% | 22% | 0 | 0 | 2
11 | Cn1cc(C(=O)Nc2ccccc2O[C@H]2CC[C@@H](C)CC2)c(C(F)(F)F)n1 [Example 72, 1H-pyrazole-4-carboxamide, 1-methyl-N-[2-[(4-methylcyclohexyl)oxy]phenyl]-3-(trifluoromethyl)-, cis-] | – | – | 0 | 0.031 µM | 0% | 0% | – | – | 0
12 | COc1cccc(NC(=O)c2cn(C)nc2C(F)(F)F)c1C1CCCCCCC1 [Example 37, 1H-pyrazole-4-carboxamide, N-(2-cyclooctyl-3-methoxyphenyl)-1-methyl-3-(trifluoromethyl)-] | 0 | 0 | 2 | 0.0048 µM | 25% | 54% | 3 | 3 | 3
13 | Cc1nn(C)c(C)c1C(=O)Nc1ccccc1C1CCCCCC1 [Example 66, 1H-pyrazole-4-carboxamide, N-(2-cycloheptylphenyl)-1,3,5-trimethyl-] | 0 | 0 | 2 | 0.048 µM | 32% | 35% | 3 | 3 | 3
14 | Cn1cc(C(=O)Nc2ccccc2SC2CCCCC2)c(C(F)F)n1 [Example 44, 1H-pyrazole-4-carboxamide, N-[2-(cyclohexylthio)phenyl]-3-(difluoromethyl)-1-methyl-] | – | – | 1 | 0.052 µM | 0% | 37% | – | – | 0
15 | C[C@H]1CCC[C@H](c2ccccc2NC(=O)c2cn(C)nc2C(F)(F)F)C1 (relative stereo) [Example 70, 1H-pyrazole-4-carboxamide, 1-methyl-N-[2-(3-methylcyclohexyl)-phenyl]-3-(trifluoromethyl)-, trans-] | 1 | 2 | 3 | 0.012 µM | 97% | 96% | – | – | 0
16 | C[C@@H]1CCC[C@H](c2ccccc2NC(=O)c2cn(C)nc2C(F)(F)F)C1 (relative stereo) [Example 79, 1H-pyrazole-4-carboxamide, 1-methyl-N-[2-(3-methylcyclohexyl)phenyl]-3-(trifluoromethyl)-, cis-] | 0 | 1 | 2 | 0.011 µM | 69% | 97% | 3 | 3 | 3
17 | Cn1cc(C(=O)Nc2ccccc2C2CCCCCCC2)c(C(F)(F)F)n1 [Example 25, 1H-pyrazole-4-carboxamide, N-(2-cyclooctylphenyl)-1-methyl-3-(trifluoromethyl)-] | 1 | 2 | 2 | 0.0011 µM | 66% | 78% | – | – | 1
